Measurements published in ChEMBL document CHEMBL1201862, “PubChem BioAssay data set” (2004).
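Protocol summary: plate cells (96-well), add compound at 5 concentrations, incubate 48 h, interpolate endpoints linearly. GI50 is the concentration that inhibits growth by half.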 The source made the active and inactive calls. Rule as the data show it: active = GI50 up to about 1.1 µM and inactive = higher.

Experiments:
Experiment in all cases: NCI tumour cell line growth inhibition, 48 h
SF-295 = tested on: SF-295
IGROV-1 = tested on: IGROV-1
SNB-19 = tested on: SNB-19
A498 = tested on: A498
MDA-MB-435 = tested on: MDA-MB-435
HCT-116 = tested on: HCT-116
MOLT-4 = tested on: MOLT-4
UACC-62 = tested on: UACC-62
DU-145 = tested on: DU-145
MDA-MB-231 = tested on: MDA-MB-231
K562 = tested on: K562
786-0 = tested on: 786-0
OVCAR-5 = tested on: OVCAR-5
A549 = tested on: A549
NCI-H23 = tested on: NCI-H23
UACC-257 = tested on: UACC-257
SR = tested on: SR
COLO 205 = tested on: COLO 205
SN12C = tested on: SN12C
SW-620 = tested on: SW-620
SK-MEL-28 = tested on: SK-MEL-28
OVCAR-4 = tested on: OVCAR-4
RPMI-8226 = tested on: RPMI-8226
ACHN = tested on: ACHN
NCI-H226 = tested on: NCI-H226
NCI-H460 = tested on: NCI-H460
HT-29 = tested on: HT-29
TK-10 = tested on: TK-10
M14 = tested on: M14
OVCAR-3 = tested on: OVCAR-3
HOP-62 = tested on: HOP-62
SF-268 = tested on: SF-268
Malme-3M = tested on: Malme-3M
SNB-75 = tested on: SNB-75
NCI/ADR-RES = tested on: NCI/ADR-RES
HL-60 = tested on: HL-60
BT-549 = tested on: BT-549
U-251 = tested on: U-251
MDA-N = tested on: MDA-N
LOX IMVI = tested on: LOX IMVI
SK-MEL-5 = tested on: SK-MEL-5
T47D = tested on: T47D
HOP-92 = tested on: HOP-92
PC-3 = tested on: PC-3
OVCAR-8 = tested on: OVCAR-8
MCF7 = tested on: MCF7
HCC 2998 = tested on: HCC 2998
SK-OV-3 = tested on: SK-OV-3
CCRF-CEM = tested on: CCRF-CEM
UO-31 = tested on: UO-31
EKVX = tested on: EKVX
HCT-15 = tested on: HCT-15

Structure (SMILES): C[N+]1(C)C(c2ccccc2)C(=O)O[B@-]1(F)c1ccccc1 (some centres not stated)
- GI50 (SF-295): > 100 µM (inactive)
- GI50 (IGROV-1): > 100 µM (inactive)
- GI50 (SNB-19): > 100 µM (inactive)
- GI50 (A498): 25.7 µM (inactive)
- GI50 (MDA-MB-435): > 100 µM (inactive)
- GI50 (HCT-116): > 100 µM (inactive)
- GI50 (MOLT-4): > 100 µM (inactive)
- GI50 (UACC-62): > 100 µM (inactive)
- GI50 (DU-145): > 100 µM (inactive)
- GI50 (MDA-MB-231): > 100 µM (inactive)
- GI50 (K562): > 100 µM (inactive)
- GI50 (786-0): > 100 µM (inactive)
- GI50 (OVCAR-5): > 100 µM (inactive)
- GI50 (A549): > 100 µM (inactive)
- GI50 (NCI-H23): > 100 µM (inactive)
- GI50 (UACC-257): > 100 µM (inactive)
- GI50 (SR): > 100 µM (inactive)
- GI50 (COLO 205): > 100 µM (inactive)
- GI50 (SN12C): > 100 µM (inactive)
- GI50 (SW-620): > 100 µM (inactive)
- GI50 (SK-MEL-28): > 100 µM (inactive)
- GI50 (OVCAR-4): > 100 µM (inactive)
- GI50 (RPMI-8226): > 100 µM (inactive)
- GI50 (ACHN): > 100 µM (inactive)
- GI50 (NCI-H226): > 100 µM (inactive)
- GI50 (NCI-H460): > 100 µM (inactive)
- GI50 (HT-29): > 100 µM (inactive)
- GI50 (TK-10): > 100 µM (inactive)
- GI50 (M14): > 100 µM (inactive)
- GI50 (OVCAR-3): > 100 µM (inactive)
- GI50 (HOP-62): > 100 µM (inactive)
- GI50 (SF-268): > 100 µM (inactive)
- GI50 (Malme-3M): > 100 µM (inactive)
- GI50 (SNB-75): 60.3 µM (inactive)
- GI50 (NCI/ADR-RES): > 100 µM (inactive)
- GI50 (HL-60): > 100 µM (inactive)
- GI50 (BT-549): > 100 µM (inactive)
- GI50 (U-251): > 100 µM (inactive)
- GI50 (MDA-N): > 100 µM (inactive)
- GI50 (LOX IMVI): > 100 µM (inactive)
- GI50 (SK-MEL-5): > 100 µM (inactive)
- GI50 (T47D): > 100 µM (inactive)
- GI50 (HOP-92): 88.1 µM (inactive)
- GI50 (PC-3): > 100 µM (inactive)
- GI50 (OVCAR-8): > 100 µM (inactive)
- GI50 (MCF7): > 100 µM (inactive)
- GI50 (HCC 2998): > 100 µM (inactive)
- GI50 (SK-OV-3): > 100 µM (inactive)
- GI50 (CCRF-CEM): > 100 µM (inactive)
- GI50 (UO-31): > 100 µM (inactive)
- GI50 (EKVX): > 100 µM (inactive)
- GI50 (HCT-15): > 100 µM
